Reference: US11534457B2, “Use of dextran sulfate” (priority 2017, dated 2022)
Marks after values point to notes of the source that are not given here.

Tested on: severe traumatic brain injury (sTBI)
Test: sTBI in rats, HPLC of purine-pyrimidine / energy metabolites in brain (Example 3)
Type: in vivo, Male Wistar rats
Details: sacrifice 7 days
Method: The experimental protocol used in this study was approved by the Ethical Committee of the Catholic University of Rome, according to international standards and guidelines for animal care. Male Wistar rats of 300-350 g body weight (b.w.) were fed with standard laboratory diet and water ad libitum in a controlled environment.
1) n=6 animals subjected to sTBI, with drug administration after 30 minutes and sacrifice at 2 days post-TBI (Acute phase 1)
2) n=6 animals subjected to severe-TBI, with drug administration after 30 minutes and sacrifice at 7 days post-TBI (Acute phase 2).
3) n=6 animals subjected to severe-TBI, with drug administration after 3 days and sacrifice at 7 days post-TBI (Chronic phase).
As the anesthetic mixture, animals received 35 mg/kg b.w. ketamine and 0.25 mg/kg b.w. midazolam by i.p. injection. sTBI was induced by dropping a 450 g weight from 2 m height on to the rat head that had been protected by a metal disk previously fixed on the skull, according to the “weight drop” impact acceleration model (Marmarou et al., A new model of diffuse brain injury in rats. Part I: Pathophysiology and biomechanics. J Neurosurg. 1994; 80: 291-300). […] At the end of each period of treatment, rats were anesthetized again and then immediately sacrificed.
The drug treatment was a subcutaneous injection of 0.5 ml of LMW-DS (15 mg/kg) and administered according to the aforementioned schematic protocol.
An in vivo craniectomy was performed in all animals during anesthesia, after carefully removing the rat's skull, the brain was exposed and removed with a surgical spatula and quickly dropped in liquid nitrogen. After the wet weight (w.w.) determination, tissue preparation was affected as previously disclosed (Tavazzi et al., Cerebral oxidative stress and depression of energy metabolism correlate with severity of diffuse brain injury in rats. Neurosurgery. 2005; 56: 582-589; Vagnozzi et al., Temporal window of metabolic brain vulnerability to concussions: mitochondrial-related impairment-part I. Neurosurgery. 2007; 61: 379-388; Tavazzi et al., Temporal window of metabolic brain vulnerability to concussions: oxidative and nitrosative stresses-part II. Neurosurgery. 2007; 61: 390-395; Amorini et al., Severity of experimental traumatic brain injury modulates changes in concentrations of cerebral free amino acids. J Cell Mol Med. 2017; 21: 530-542.). Briefly, whole brain homogenization was performed with 7 ml of ice-cold, nitrogen-saturated, precipitating solution composed by CH3CN+10 mM KH2PO4, pH 7.40, (3:1; v:v), and using an Ultra-Turrax set at 24,000 rpm/min (Janke & Kunkel, Staufen, Germany). After centrifugation at 20,690×g, for 10 min at 4° C., the clear supernatants were saved, pellets were supplemented with 3 ml of the precipitating solution and homogenized again as described above. A second centrifugation was performed (20,690×g, for 10 min at 4° C.), pellets were saved, supernatants combined with those previously obtained, extracted by vigorous agitation with a double volume of HPLC-grade CHCl3 and centrifuged as above. The upper aqueous phases containing water-soluble low-molecular weight compounds were collected, subjected to chloroform washings for two more times (this procedure allowed the removal of all the organic solvent and of any lipid soluble compound from the buffered tissue extracts), adjusted in volumes with 10 mM KH2PO4, pH 7.40, to have ultimately aqueous 10% tissue homogenates and saved at −80° C. until assayed. […]

[1] = Acute phase 2: 15 mg/kg s.c. 30 min post-sTBI
[2] = Chronic phase: 15 mg/kg s.c. 3 days post-sTBI

low molecular weight dextran sulfate [LMW-DS]
NO2, cerebral concentration [1]: 226.40 ± 30.95^b nmol/g (w.w.)
NO3, cerebral concentration [1]: 198.56 ± 25.93^e,i nmol/g (w.w.)
UDP, cerebral concentration [1]: 40.38 ± 8.50^a,i nmol/g (w.w.)
UDP-Gal, cerebral concentration [1]: 145.14 ± 27.76 nmol/g (w.w.)
UDP-GalNac, cerebral concentration [1]: 19.90 ± 3.12^a,e nmol/g (w.w.)
UDP-Glc, cerebral concentration [1]: 44.44 ± 7.59^i nmol/g (w.w.)
UDP-GlcNac, cerebral concentration [1]: 130.65 ± 28.41^a nmol/g (w.w.)
UMP, cerebral concentration [1]: 138.73 ± 32.01^b nmol/g (w.w.)
UTP, cerebral concentration [1]: 146.71 ± 32.68^e nmol/g (w.w.)
acetyl-CoA, cerebral concentration [1]: 36.86 ± 4.11^e nmol/g (w.w.)
adenine, cerebral concentration [1]: 58.16 ± 6.36^a,f nmol/g (w.w.)
ascorbic acid, cerebral concentration [1]: 3512.58 ± 224.62^a,e nmol/g (w.w.)
creatinine, cerebral concentration [1]: 37.27 ± 5.82^a,e,j nmol/g (w.w.)
cytidine, cerebral concentration [1]: 16.18 ± 4.21^e nmol/g (w.w.)
cytosine, cerebral concentration [1]: 15.70 ± 4.10^f nmol/g (w.w.)
guanine, cerebral concentration [1]: 4.73 ± 1.07 nmol/g (w.w.)
guanosine, cerebral concentration [1]: 17.90 ± 3.24^j nmol/g (w.w.)
hypoxanthine, cerebral concentration [1]: 12.90 ± 2.58^a,j nmol/g (w.w.)
inosine, cerebral concentration [1]: 85.52 ± 20.36^e nmol/g (w.w.)
malonyl-CoA, cerebral concentration [1]: 11.29 ± 2.27^b nmol/g (w.w.)
orotic acid, cerebral concentration [1]: 13.34 ± 3.65^a nmol/g (w.w.)
thymidine, cerebral concentration [1]: 0.49 ± 0.20^f nmol/g (w.w.)
uracil, cerebral concentration [1]: 19.40 ± 7.52^a,e nmol/g (w.w.)
uric acid, cerebral concentration [1]: 19.17 ± 2.15^a,h,i nmol/g (w.w.)
uridine, cerebral concentration [1]: 63.02 ± 9.66^b,e nmol/g (w.w.)
xanthine, cerebral concentration [1]: 10.41 ± 2.11^f nmol/g (w.w.)
β-pseudouridine, cerebral concentration [1]: 13.26 ± 3.16^a,e,j nmol/g (w.w.)
ADO, cerebral concentration [2]: 89.97 ± 12.98^a nmol/g (w.w.)
ADP, cerebral concentration [2]: 315.53 ± 46.53^a nmol/g (w.w.)
ADP-ribose, cerebral concentration [2]: 173.94 ± 8.45^a nmol/g (w.w.)
AMP, cerebral concentration [2]: 90.01 ± 21.24^a nmol/g (w.w.)
ATP, cerebral concentration [2]: 1381.03 ± 212.64^a nmol/g (w.w.)
CDP choline, cerebral concentration [2]: 8.37 ± 2.19 nmol/g (w.w.)
CDP, cerebral concentration [2]: 23.55 ± 6.45^a nmol/g (w.w.)
CMP, cerebral concentration [2]: 20.51 ± 3.73^a,f nmol/g (w.w.)
CTP, cerebral concentration [2]: 25.23 ± 2.93^a,f nmol/g (w.w.)
CoA-SH, cerebral concentration [2]: 27.58 ± 6.24^f nmol/g (w.w.)
GDP glucose, cerebral concentration [2]: 43.85 ± 5.06^b nmol/g (w.w.)
GDP, cerebral concentration [2]: 173.05 ± 28.68^a,e nmol/g (w.w.)
GMP, cerebral concentration [2]: 148.56 ± 31.21^a nmol/g (w.w.)
GSH, cerebral concentration [2]: 2608.67 ± 358.07^a,e nmol/g (w.w.)
GSSG, cerebral concentration [2]: 231.08 ± 44.34^b,f nmol/g (w.w.)
GTP, cerebral concentration [2]: 290.92 ± 34.68^a,f nmol/g (w.w.)
IMP, cerebral concentration [2]: 99.29 ± 13.82^a nmol/g (w.w.)
MDA, cerebral concentration [2]: 11.62 ± 3.90^a,e nmol/g (w.w.)
NADH, cerebral concentration [2]: 11.78 ± 3.32^e nmol/g (w.w.)
NADPH, cerebral concentration [2]: 7.34 ± 2.65^f nmol/g (w.w.)
NADP^+, cerebral concentration [2]: 16.44 ± 2.66^a,f nmol/g (w.w.)
NAD^+, cerebral concentration [2]: 301.13 ± 29.90^a nmol/g (w.w.)
NM, cerebral concentration [2]: 6375.36 ± 974.12^a,e nmol/g (w.w.)
NO2, cerebral concentration [2]: 217.67 ± 55.04^a nmol/g (w.w.)
NO3, cerebral concentration [2]: 241.27 ± 18.84^e nmol/g (w.w.)
UDP, cerebral concentration [2]: 57.40 ± 5.88^a,f nmol/g (w.w.)
UDP-Gal, cerebral concentration [2]: 122.29 ± 12.15 nmol/g (w.w.)
UDP-GalNac, cerebral concentration [2]: 21.84 ± 2.80^a,e nmol/g (w.w.)
UDP-Glc, cerebral concentration [2]: 35.79 ± 3.45^b nmol/g (w.w.)
UDP-GlcNac, cerebral concentration [2]: 129.42 ± 15.88^b nmol/g (w.w.)
UMP, cerebral concentration [2]: 103.11 ± 29.79 nmol/g (w.w.)
UTP, cerebral concentration [2]: 136.80 ± 33.25^f nmol/g (w.w.)
acetyl-CoA, cerebral concentration [2]: 35.68 ± 6.55^e nmol/g (w.w.)
adenine, cerebral concentration [2]: 52.94 ± 8.59^a,f nmol/g (w.w.)
ascorbic acid, cerebral concentration [2]: 3375.03 ± 856.41^a,e nmol/g (w.w.)
creatinine, cerebral concentration [2]: 51.25 ± 10.17^a,f nmol/g (w.w.)
cytidine, cerebral concentration [2]: 14.71 ± 2.83^e nmol/g (w.w.)
cytosine, cerebral concentration [2]: 15.58 ± 2.50^b,f nmol/g (w.w.)
guanine, cerebral concentration [2]: 5.31 ± 1.04^b nmol/g (w.w.)
guanosine, cerebral concentration [2]: 28.87 ± 7.60^a,f nmol/g (w.w.)
hypoxanthine, cerebral concentration [2]: 17.97 ± 4.49^a nmol/g (w.w.)
inosine, cerebral concentration [2]: 105.81 ± 25.57^f nmol/g (w.w.)
malonyl-CoA, cerebral concentration [2]: 10.00 ± 1.95^b nmol/g (w.w.)
orotic acid, cerebral concentration [2]: 12.05 ± 1.50^a nmol/g (w.w.)
thymidine, cerebral concentration [2]: 0.71 ± 0.11 nmol/g (w.w.)
uracil, cerebral concentration [2]: 16.57 ± 2.99^a,f nmol/g (w.w.)
uric acid, cerebral concentration [2]: 27.77 ± 3.60^a nmol/g (w.w.)
uridine, cerebral concentration [2]: 63.28 ± 3.37^f nmol/g (w.w.)
xanthine, cerebral concentration [2]: 9.35 ± 0.83^f nmol/g (w.w.)
β-pseudouridine, cerebral concentration [2]: 18.62 ± 2.80^a nmol/g (w.w.)
